# Laboratory results published in article PMC6095608 (PLoS ONE, 2018).
# What was measured:
# [1] = biological target: T1, OCT2 (Homo sapiens, UniProt O15244); test: Inhibition of net [14C]-metformin uptake in MDCK-OCT2 cells; format: cell-based; conditions: 50 μM metformin, 5 min, pH 7.4, efavirenz 0.01–50 μM, read-out: IC50, inhibition of net OCT2-mediated [14C]-metformin uptake
# T1 construct: expressed in transfected cells; host or cells: MDCKII (MDCK-OCT2)
# T1 sequence (O15244 1-555): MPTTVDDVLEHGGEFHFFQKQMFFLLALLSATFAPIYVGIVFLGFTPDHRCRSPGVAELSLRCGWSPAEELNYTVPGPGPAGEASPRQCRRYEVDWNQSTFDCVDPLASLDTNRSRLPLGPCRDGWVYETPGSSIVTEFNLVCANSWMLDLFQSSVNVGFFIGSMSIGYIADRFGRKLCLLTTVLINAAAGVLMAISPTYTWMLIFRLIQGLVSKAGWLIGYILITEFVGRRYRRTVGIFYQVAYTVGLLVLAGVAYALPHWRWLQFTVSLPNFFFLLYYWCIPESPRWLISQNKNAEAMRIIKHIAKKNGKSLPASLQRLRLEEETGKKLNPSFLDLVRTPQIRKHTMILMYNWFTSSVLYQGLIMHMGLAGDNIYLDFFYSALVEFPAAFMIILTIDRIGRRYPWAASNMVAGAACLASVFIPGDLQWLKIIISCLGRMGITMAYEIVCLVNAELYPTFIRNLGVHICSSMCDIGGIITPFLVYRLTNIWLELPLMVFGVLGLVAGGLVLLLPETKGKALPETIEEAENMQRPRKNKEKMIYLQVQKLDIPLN
# Experimental: (§1) The singly-transfected OCT1, OCT2, MATE1 or control MDCK cells were seeded on 12-well plates at a density of 0.5 x 10^6 cells per well and cultivated in standard cultivation medium MEM (Gibco) + 10% FBS. Forty-eight hours after seeding, uptake experiments with radiolabelled metformin were performed. Cells were washed with 500 μl pre-warmed HBSS buffer of pH 7.4 (for OCTs) or 8.0 (for MATE1). Solutions of [^14C]-metformin (50 μM) in HBSS buffer of pH 7.4 or 8.0 with or without efavirenz were then added, and the resulting mixtures were left to stand for an accumulation period of 5 minutes. […] After the accumulation period, the solutions were aspirated and the cells were washed three times with 500 μl ice-cold HBSS buffer of pH 7.4 or 8.0 before being lysed with 0.02% sodium dodecyl sulphate (SDS). The intracellular accumulation of radioactivity was detected using a liquid scintillation counter (Tri-Carb 2910 TR Perkin Elmer), and protein concentrations in the cell lysates were measured by the BCA protein assay. Net transporter-mediated uptake was obtained by subtracting the accumulation of metformin in vector control cells from that in drug transporter-overexpressing cells.
# (§2) A p value of ≤ 0.05 was considered statistically significant. […]
# [2] = test system: human OCT1; design: method as in PMID 18490433; conditions: 5 μM efavirenz, 1 min incubation; cited from earlier work
# [3] = design: method as in PMID 16141277; conditions: humans, plasma proteins; cited from earlier work
# [4] = Efavirenz plasma concentration in patients (literature); format: in vivo, human; conditions: calculated from average plasma concentration and unbound percentage
# [5] = biological target: T2, MATE1 (Homo sapiens, UniProt Q96FL8); test: Transcellular transport assay across MDCK-MATE1 monolayers; format: cell-based; conditions: 10 μM efavirenz, 2 h
# T2 construct: expressed in transfected cells; host or cells: MDCKII (MDCK-MATE1)
# T2 sequence (Q96FL8 whole entry): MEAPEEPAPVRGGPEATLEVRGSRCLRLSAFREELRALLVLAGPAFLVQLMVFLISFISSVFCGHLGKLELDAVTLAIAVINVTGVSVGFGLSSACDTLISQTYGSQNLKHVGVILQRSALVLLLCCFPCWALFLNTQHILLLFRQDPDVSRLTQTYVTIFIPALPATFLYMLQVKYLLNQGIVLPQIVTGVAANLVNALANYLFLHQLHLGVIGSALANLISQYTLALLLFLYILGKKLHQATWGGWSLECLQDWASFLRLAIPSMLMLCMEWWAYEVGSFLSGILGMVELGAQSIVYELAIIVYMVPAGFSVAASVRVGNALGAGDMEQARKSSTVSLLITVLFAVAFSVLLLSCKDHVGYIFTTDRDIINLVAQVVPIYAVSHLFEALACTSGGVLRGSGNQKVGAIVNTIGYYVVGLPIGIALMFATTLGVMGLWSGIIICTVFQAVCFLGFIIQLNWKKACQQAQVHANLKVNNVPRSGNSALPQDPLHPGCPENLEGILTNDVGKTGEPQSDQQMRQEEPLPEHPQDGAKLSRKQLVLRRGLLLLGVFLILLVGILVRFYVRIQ
# Experimental: Transport experiments employing polarized monolayers of MDCK-OCT1, MDCK-OCT2, or MDCK-MATE1 cell lines as well as doubly transfected MDCK-OCT1-MATE1 or MDCK-OCT2-MATE1 lines and the non-transfected parental control MDCK-Co cells grown on Transwell 3402 cell culture inserts (3.0 μm pore size, 24 mm diameter; Costar, Corning, NY) were performed as described previously. The number of cells per well was 0.5 x 10^6 in all experiments, and the cells were incubated for 3 days to confluence in standard cultivation medium MEM (Gibco) + 10% FBS. After 3 days’ cultivation, medium was removed from both sides and the cells of the monolayer were washed using pre-warmed PBS. […] The pH of the medium on the basolateral side was 7.4, while that on the apical side was set to 6.0 (adjusted by adding HCl or NaOH, when necessary) to ensure optimal MATE1 transport activity. Cells were incubated at 37°C in 5% CO2 for 2 hours. At the end of the incubation period, 50 μl aliquots were sampled and the rest of the medium was immediately removed. The cells were then washed twice with ice-cold PBS, the membranes supporting cellular monolayers were excised, and the cells were dissolved in a 0.02% SDS solution. The radioactivity of the collected samples and lysed monolayers was measured by liquid scintillation counting (Tri-Carb 2910 TR Perkin Elmer), and the protein concentration of the cell lysates was quantified using the BCA protein assay. Transport rates were recorded in pmol per mg protein in the cellular monolayer.
# [6] = biological target: T3, OCT1 (Homo sapiens, UniProt O15245); test: Inhibition of net [14C]-metformin uptake in MDCK-OCT1 cells; format: cell-based; conditions: 50 μM metformin, 5 min, pH 7.4, efavirenz 0.01–50 μM, read-out: IC50, inhibition of net OCT1-mediated [14C]-metformin uptake
# T3 construct: expressed in transfected cells; host or cells: MDCKII (MDCK-OCT1)
# T3 sequence (O15245 1-554): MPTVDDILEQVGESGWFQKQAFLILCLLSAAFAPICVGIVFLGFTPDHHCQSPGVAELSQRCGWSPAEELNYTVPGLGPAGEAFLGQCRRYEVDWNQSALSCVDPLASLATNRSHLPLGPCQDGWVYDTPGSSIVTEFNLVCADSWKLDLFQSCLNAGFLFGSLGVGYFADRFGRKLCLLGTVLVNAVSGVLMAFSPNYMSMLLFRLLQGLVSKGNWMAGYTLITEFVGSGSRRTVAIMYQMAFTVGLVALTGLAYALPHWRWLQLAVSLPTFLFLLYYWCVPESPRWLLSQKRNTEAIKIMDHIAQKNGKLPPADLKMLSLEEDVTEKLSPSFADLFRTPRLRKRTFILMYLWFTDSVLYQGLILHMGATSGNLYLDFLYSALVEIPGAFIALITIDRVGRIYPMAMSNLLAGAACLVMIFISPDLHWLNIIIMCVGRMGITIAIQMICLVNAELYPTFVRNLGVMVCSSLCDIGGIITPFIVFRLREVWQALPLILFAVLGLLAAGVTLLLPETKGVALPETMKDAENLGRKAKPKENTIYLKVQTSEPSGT
# Experimental: as §1, §2
compound,measurement,setting,value
"O=C1Nc2ccc(Cl)cc2[C@@](C#CC2CC2)(C(F)(F)F)O1 [efavirenz, Efavirenz]",IC50,[1],5.66 µM
same,Inhibitory effect on OCT1 with MPP+ as substrate,[2],did not detect any inhibitory effect
same,Median unbound percentage,[3],0.63%
same,50x the unbound concentration of efavirenz in elimination organs,[4],around 2.7 μM
same,Effect on basolateral-to-apical transport of [3H]-MPP+,"[5]; 2 nM MPP+, MDCK-MATE1",Inhibition
same,Effect on intracellular accumulation of [3H]-MPP+,"[5]; 2 nM MPP+, MDCK-MATE1 monolayers",increased
same,Effect on intracellular accumulation of [3H]-lamivudine,"[5]; 10 nM lamivudine, MDCK-MATE1",enhanced
same,IC50,[6],2.3 µM
